The values below are quoted from earlier work in patent US20260027014A1, “DEVICES AND METHODS RELATED TO COLORIMETRIC DETECTION FOR DENTAL USES” (CaviSense Inc., priority 2022, published 2026).

Molecules are shown by their SMILES. Like-named read-outs stand apart in the source and are kept apart here.

With `OC[C@H]1O[C@@](CO)(O[C@H]2O[C@H](CO)[C@@H](O)[C@H](O)[C@H]2O)[C@@H](O)[C@@H]1O` [sucrose], the solubility by setting is: (in methanol) 1 g/100 ml; (in water) 210 g/100 mL.
